Laboratory results as given in patent publication US20260042762A1 (Kymera Therapeutics, Inc., priority 2018, published 2026).
Where a name gives a salt, the structure may show the parent alone.

Target: T1, MerTK (Homo sapiens, UniProt Q12866)
T1 construct: endogenous in cells; host or cells: Jurkat cells
T1 sequence (Q12866 21-999): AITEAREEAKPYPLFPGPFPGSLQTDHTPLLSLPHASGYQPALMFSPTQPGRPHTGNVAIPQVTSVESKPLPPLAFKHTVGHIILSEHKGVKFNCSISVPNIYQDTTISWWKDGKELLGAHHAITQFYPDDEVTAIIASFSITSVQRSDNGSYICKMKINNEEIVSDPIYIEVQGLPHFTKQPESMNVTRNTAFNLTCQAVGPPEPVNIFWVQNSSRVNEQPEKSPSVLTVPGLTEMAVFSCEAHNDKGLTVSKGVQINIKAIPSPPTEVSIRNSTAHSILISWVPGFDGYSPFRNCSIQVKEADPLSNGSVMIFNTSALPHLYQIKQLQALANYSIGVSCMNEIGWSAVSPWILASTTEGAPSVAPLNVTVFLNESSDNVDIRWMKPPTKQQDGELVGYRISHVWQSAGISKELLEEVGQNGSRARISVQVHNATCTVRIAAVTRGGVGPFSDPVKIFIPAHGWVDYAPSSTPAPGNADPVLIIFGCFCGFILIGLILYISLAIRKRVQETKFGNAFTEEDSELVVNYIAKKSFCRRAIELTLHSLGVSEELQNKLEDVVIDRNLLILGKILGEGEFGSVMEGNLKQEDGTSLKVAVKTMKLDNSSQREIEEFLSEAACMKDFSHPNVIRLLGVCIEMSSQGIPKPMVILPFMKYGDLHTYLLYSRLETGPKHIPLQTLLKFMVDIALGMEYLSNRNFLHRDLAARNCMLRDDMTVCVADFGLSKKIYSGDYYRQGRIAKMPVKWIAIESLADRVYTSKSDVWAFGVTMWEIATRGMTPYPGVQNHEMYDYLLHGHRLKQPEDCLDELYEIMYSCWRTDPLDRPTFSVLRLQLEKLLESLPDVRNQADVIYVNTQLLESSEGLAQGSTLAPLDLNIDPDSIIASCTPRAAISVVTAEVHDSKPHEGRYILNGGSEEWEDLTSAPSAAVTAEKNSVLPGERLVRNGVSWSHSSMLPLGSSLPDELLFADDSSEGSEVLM
Assay: MerTk degradation in Jurkat cells (Western blot)
Format: cell-based
Conditions: Jurkat, 4 h, 0.001-1 μM, 4 hour-incubation at 37° C., read-out: Jurkat Max % MerTK Degradation
Description: Compounds were reconstituted in DMSO to make 10 mM stock solutions. […] Cells were seeded into 6-well plates with about 5×10^6 cells per well. 2 μL of diluted compounds were added to cells to the final concentration of 0.001-1 μM. After a 4 hour-incubation at 37° C., cells were collected into 2 mL Eppendorf tubes and centrifuged at 1,000 rpm for 5 min. The cell pellets were washed with DPBS (1×) once and resuspended in 60 μL RIPA lysis buffer with Halt Protease and Phophatase Inhibitor Cocktail. The cells were lysed on ice for 10 min, then centrifuged at 14,000 rpm for 10 min at 4° C. and the supernatants were collected for western blots.
The protein concentration of cell lysates was quantified with Pierce™ BCA Protein Assay Kit. […] BCA working reagents were prepared by mixing BCA reagent A with reagent B in 50: 1 ratio. 200 μL of the BCA working reagents were added to 25 μL of BCA standard or cell lysates in microplate, and mixed thoroughly on a plate shaker for 30 seconds. After incubation at 37° C. for 30 min, the absorbance of samples at 562 nm were measured with EnVision Plate Reader.
Protein lysates were prepared in NuPAGE™ LDS sample buffer and NuPAGE™ sample reducing agent, and incubated at 95° C. for 5 min. […] The proteins were transferred to low fluorescence PVDF membranes using the Trans-Blot Turbo Transfer System. Membranes were then blocked in Odyssey blocking buffer at RT for 1 h followed by primary incubation at 4° C. overnight. The primary antibodies were MerTK rabbit monoclonal antibody and actin mouse monoclonal antibody. Membranes were washed three times with TBST (1×), and then incubated with IR Dye 800 CW Goat anti-rabbit and IR Dye 700 CW Goat anti-mouse secondary antibodies in 1:10,000 dilution at RT for 1 h. The Western blot images were obtained using Odyssey Imaging System.

| SMILES | Dmax [%] |
| --- | --- |
| Cn1c(=O)n([C@H]2CCC(=O)NC2=O)c2ccc(CCCOCCOCCOCCN3CCN(Cc4ccc(-c5cn([C@H]6CC[C@H](O)CC6)c6nc(NCCC(F)(F)F)ncc56)cc4)CC3)cc21 [I-55, 3-[3-methyl-2-oxo-5-(3-[2-[2-(2-[4-[(4-[7-[trans-4-hydroxycyclohexyl]-2-[(3,3,3-trifluoropropyl)amino]-7H-pyrrolo[2,3-d]pyrimidin-5-yl]phenyl)methyl]piperazin-1-yl]ethoxy)ethoxy]ethoxy]propyl)-2,3-dihydro-1H-1,3-benzodiazol-1-yl]piperidine-2,6-dione] | > 50 |
| Cn1c(=O)n([C@H]2CCC(=O)NC2=O)c2ccc(CCCOCCOCCN3CCN(Cc4ccc(-c5cn([C@H]6CC[C@H](O)CC6)c6nc(NCCC(F)(F)F)ncc56)cc4)CC3)cc21 [I-56, 3-(3-methyl-2-oxo-5-[3-[2-(2-[4-[(4-[7-[trans-4-hydroxycyclohexy1]-2-[(3,3,3-trifluoropropyl)amino]-7H-pyrrolo[2,3-d]pyrimidin-5-yl]phenyl)methyl]piperazin-1-yl]ethoxy)ethoxy]propyl]-2,3-dihydro-1H-1,3-benzodiazol-1-yl)piperidine-2,6-dione] | > 50 |
| CCCCNc1ncc2c(-c3ccc(CN4CCN(CCOCCOCCOCCOCCCc5ccc6c(c5)n(C)c(=O)n6[C@H]5CCC(=O)NC5=O)CC4)cc3)cn(C3CCCCC3)c2n1 [I-57, 3-(5-[1-[4-([4-[2-(butylamino)-7-cyclohexy1-7H-pyrrolo[2,3-d]pyrimidin-5-yl]phenyl]methyl)piperazin-1-yl]-3,6,9,12-tetraoxapentadecan-15-y1]-3-methyl-2-oxo-2,3-dihydro-1H-1,3-benzodiazol-1-y1)piperidine-2,6-dione] | > 50 |
| CCCCNc1ncc2c(-c3ccc(CN4CCN(CCOCCOCCOCCOCCCc5ccc6c(c5)n(C)c(=O)n6[C@H]5CCC(=O)NC5=O)CC4)cc3F)cn([C@H]3CC[C@H](O)CC3)c2n1 [I-58, 3-(5-[1-[4-([4-[2-(butylamino)-7-[trans-4-hydroxycyclohexy1]-7H-pyrrolo[2,3-d]pyrimidin-5-y1]-3-fluorophenyl]methyl)piperazin-1-y1]-3,6,9,12-tetraoxapentadecan-15-y1]-3-methyl-2-oxo-2,3-dihydro-1H-1,3-benzodiazol-1-yl)piperidine-2,6-dione] | > 50 |
| CCCCNc1ncc2c(-c3ccc(C(C)N4CCN(CCOCCOCCOCCOCCCc5ccc6c(c5)n(C)c(=O)n6C5CCC(=O)NC5=O)CC4)cc3)cn([C@H]3CC[C@H](O)CC3)c2n1 (stereo partly drawn) [I-59, 3-(5-[1-[4-(1-[4-[2-(butylamino)-7-[trans-4-hydroxycyclohexy1]-7H-pyrrolo[2,3-d]pyrimidin-5-yl]phenyl]ethyl)piperazin-1-yl]-3,6,9,12-tetraoxapentadecan-15-y1]-3-methyl-2-oxo-2,3-dihydro-1H-1,3-benzodiazol-1-yl)piperidine-2,6-dione] | > 50 |
| CCCCNc1ncc2c(-c3ccc(S(=O)(=O)N4CCN(CCOCCOCCOCCOCCCc5ccc6c(c5)n(C)c(=O)n6[C@H]5CCC(=O)N(C)C5=O)CC4)cc3)cn([C@H]3CC[C@H](O)CC3)c2n1 [I-60, 3-[5-[1-(4-[4-[2-(butylamino)-7-[trans-4-hydroxycyclohexyl]-7H-pyrrolo[2,3-d]pyrimidin-5-yl]benzenesulfonyl]piperazin-1-yl)-3,6,9,12-tetraoxapentadecan-15-y1]-3-methyl-2-oxo-2,3-dihydro-1H-1,3-benzodiazol-1-yl]-1-methylpiperidine-2,6-dione; formic acid] | < 20 |

Next, values leading:

| Dmax [%] | SMILES |
| --- | --- |
| > 50 | CCCCNc1ncc2c(-c3ccc(CN4CCN(CCOCCOCCOCCOCCNc5ccc6c(c5)n(C)c(=O)n6[C@H]5CCC(=O)NC5=O)CC4)cc3)cn([C@H]3CC[C@H](O)CC3)c2n1 [I-61, 3-(5-[15-[4-([4-[2-(butylamino)-7-[trans-4-hydroxycyclohexyl]-7H-pyrrolo[2,3-d]pyrimidin-5-yl]phenyl]methyl)piperazin-1-y1]-4,7,10,13-tetraoxa-1-azapentadecan-1-y1]-3-methyl-2-oxo-2,3-dihydro-1H-1,3-benzodiazol-1-y1)piperidine-2,6-dione; bis(formic acid)] |
| > 50 | CCCCNc1ncc2c(-c3ccc(CN4CCN(CCCOCCCOCCCc5ccc6c(c5)n(C)c(=O)n6[C@H]5CCC(=O)NC5=O)CC4)cc3)cn([C@H]3CC[C@H](O)CC3)c2n1 [I-62, 3-[5-[3-(3-[3-[4-([4-[2-(butylamino)-7-[trans-4-hydroxycyclohexy1]-7H-pyrrolo[2,3-d]pyrimidin-5-yl]phenyl]methyl)piperazin-1-y1]propoxy]propoxy)propy1]-3-methyl-2-oxo-2,3-dihydro-1H-1,3-benzodiazol-1-y1]piperidine-2,6-dione dihydrochloride] |
| > 50 | Cn1c(=O)n([C@H]2CCC(=O)NC2=O)c2ccc(CCCOCCOCCOCCN3CCN(Cc4ccc(-c5nn([C@H]6CC[C@H](O)CC6)c6nc(NCCC(F)(F)F)ncc56)cc4)CC3)cc21 [I-63, 3-[3-methyl-2-oxo-5-(3-[2-[2-(2-[4-[(4-[1-[trans-4-hydroxycyclohexyl]-6-[(3,3,3-trifluoropropyl)amino]-1H-pyrazolo[3,4-d]pyrimidin-3-yl]phenyl)methyl]piperazin-1-yl]ethoxy)ethoxy]ethoxy]propyl)-2,3-dihydro-1H-1,3-benzodiazol-1-yl]piperidine-2,6-dione; formic acid] |
| > 50 | Cn1c(=O)n([C@H]2CCC(=O)NC2=O)c2ccc(CCCOCCOCCN3CCN(Cc4ccc(-c5nn([C@H]6CC[C@H](O)CC6)c6nc(NCCC(F)(F)F)ncc56)cc4)CC3)cc21 [I-64, 3-(3-methyl-2-oxo-5-[3-[2-(2-[4-[(4-[1-[trans-4-hydroxycyclohexyl]-6-[(3,3,3-trifluoropropyl)amino]-1H-pyrazolo[3,4-d]pyrimidin-3-yl]phenyl)methyl]piperazin-1-yl]ethoxy)ethoxy]propyl]-2,3-dihydro-1H-1,3-benzodiazol-1-y1)piperidine-2,6-dione] |
| > 50 | CCCCNc1ncc2c(-c3ccc(CN4CCC(OCCCOCCCc5ccc6c(c5)n(C)c(=O)n6[C@H]5CCC(=O)NC5=O)CC4)cc3)cn([C@H]3CC[C@H](O)CC3)c2n1 [I-66, 3-[5-[3-(3-[[1-([4-[2-(butylamino)-7-[trans-4-hydroxycyclohexyl]-7H-pyrrolo[2,3-d]pyrimidin-5-yl]phenyl]methyl)piperidin-4-yl]oxy]propoxy)propyl]-3-methyl-2-oxo-2,3-dihydro-1H-1,3-benzodiazol-1-yl]piperidine-2,6-dione] |
| > 50 | CCCCNc1ncc2c(-c3ccc(CNCCCC(=O)N(C)CCOCCCc4ccc5c(c4)n(C)c(=O)n5[C@H]4CCC(=O)NC4=O)cc3)cn([C@H]3CC[C@H](O)CC3)c2n1 [I-67, 4-[([4-[2-(butylamino)-7-[trans-4-hydroxycyclohexy1]-7H-pyrrolo[2,3-d]pyrimidin-5-yl]phenyl]methyl)amino]-N-(2-[3-[1-(2,6-dioxopiperidin-3-y1)-3-methyl-2-oxo-2,3-dihydro-1H-1,3-benzodiazol-5-yl]propoxy]ethyl)-N-methylbutanamide; formic acid] |
